SMILES strings stand for the structures.

The IC50 is the concentration that gives 50% inhibition.

For the experiment, the target named is ALK2 (Homo sapiens (Human), UniProt Q04771). Put plainly: ALK2 inhibition, LanthaScreen Eu Kinase Binding Assay (ThermoFisher Scientific / Life Technologies). The settings on record: read-out: Measured Ki (IC50) Value for Compounds: IC50. As for the experimental part: Biochemical assays to measure the inhibitory effects of the compounds were performed by ThermoFisher Scientific (Life Technologies). ALK2 inhibition was tested using LanthaScreen™ Eu Kinase Binding Assay screening protocol.
Sequence of ALK2 (Q04771 21-509): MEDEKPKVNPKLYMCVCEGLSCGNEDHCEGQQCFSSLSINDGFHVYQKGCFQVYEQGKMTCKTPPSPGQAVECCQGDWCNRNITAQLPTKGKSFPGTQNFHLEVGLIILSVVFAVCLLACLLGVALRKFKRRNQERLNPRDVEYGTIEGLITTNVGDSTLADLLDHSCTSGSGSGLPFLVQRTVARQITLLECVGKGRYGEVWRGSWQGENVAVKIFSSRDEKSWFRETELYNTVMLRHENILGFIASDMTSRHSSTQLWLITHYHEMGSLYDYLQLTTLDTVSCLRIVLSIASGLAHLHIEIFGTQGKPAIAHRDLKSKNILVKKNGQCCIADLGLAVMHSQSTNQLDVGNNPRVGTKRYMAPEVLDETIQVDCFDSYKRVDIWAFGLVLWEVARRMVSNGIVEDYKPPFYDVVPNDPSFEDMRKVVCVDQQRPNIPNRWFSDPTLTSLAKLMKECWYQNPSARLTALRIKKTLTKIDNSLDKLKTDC
(Time-resolved FRET reads energy transfer from a long-lived donor to a nearby acceptor.)

`COc1cc(-n2cnc(Nc3nc(C(=O)N4CCCC4)c4cccn4n3)c2)cc(OC)c1OC` [Compound 419b, pyrrolidin-1-yl(2-((1-(3,4,5-trimethoxyphenyl)-1H-imidazol-4-yl)amino)pyrrolo[2,1-f][1,2,4]triazin-4-yl)methanone]: the IC50 was in the range of 100 to 1000 nM. With `COc1cc(-n2cnc(Nc3nc(N4CCC[C@H]4C(N)=O)nc4[nH]cc(C#N)c34)c2)cc(OC)c1OC` [Compound 395d, (S)-1-(5-cyano-4-((1-(3,4,5-trimethoxyphenyl)-1H-imidazol-4-yl)amino)-7H-pyrrolo[2,3-d]pyrimidin-2-yl)pyrrolidine-2-carboxamide], the IC50 was over 1000 nM. Take `COc1cc(-n2cnc(Nc3nc4c(c(N5CCC[C@@H]5CO)n3)CNC4)c2)cc(OC)c1OC` [Compound 366c, (R)-(1-(2-(1-(3,4,5-trimethoxyphenyl)-1H-imidazol-4-ylamino)-6,7-dihydro-5H-pyrrolo[3,4-d]pyrimidin-4-yl)pyrrolidin-2-yl)methanol]: the IC50 was under 100 nM. Next, `COc1cc(-n2cnc(Nc3nc(N4CCN(C)CC4)nc4ccoc34)c2)cc(OC)c1OC` [Compound 235a, 2-(4-methylpiperazin-1-yl)-N-(1-(3,4,5-trimethoxyphenyl)-1H-imidazol-4-yl)furo[3,2-d]pyrimidin-4-amine]: under 100 nM; `COc1cc(-n2cnc(Nc3nc(N4CCC[C@H]4C(N)=O)c4c(ccn4S(=O)(=O)c4ccc(C)cc4)n3)c2)cc(OC)c1OC` [Compound 191b, (S)-1-(5-tosyl-2-((1-(3,4,5-trimethoxyphenyl)-1H-imidazol-4-yl)amino)-5H-pyrrolo[3,2-d]pyrimidin-4-yl)pyrrolidine-2-carboxamide]: under 100 nM; `COc1cc(-n2cnc(Nc3nc(N4CCC[C@H]4CO)nn4cccc34)c2)cc(C#N)c1OC` [Compound 167f, (S)-5-(4-((2-(2-(hydroxymethyl)pyrrolidin-1-yl)pyrrolo[2,1-f][1,2,4]triazin-4-yl)amino)-1H-imidazol-1-yl)-2,3-dimethoxybenzonitrile]: over 1000 nM.

As for `COc1cc(OC)cc(-n2cnc(Nc3nc(N4CCC[C@H]4CO)nn4cccc34)c2)c1` [Compound 72c, (S)-(1-(4-((1-(3,5-dimethoxyphenyl)-1H-imidazol-4-yl)amino)pyrrolo[2,1-f][1,2,4]triazin-2-yl)pyrrolidin-2-yl)methanol], the IC50 is under 100 nM.

As to `COc1cc(-n2cnc(Nc3nc4c(c(N5CCC[C@H]5CO)n3)CCN(Cc3ccccc3)C4)c2)cc(OC)c1OC` [Compound 165b, (S)-(1-(7-benzyl-2-((1-(3,4,5-trimethoxyphenyl)-1H-imidazol-4-yl)amino)-5,6,7,8-tetrahydropyrido[3,4-d]pyrimidin-4-yl)pyrrolidin-2-yl)methanol], the concentration for half-maximal inhibition (IC50) is under 100 nM. As for `COc1cc(-n2cnc(Nc3nc(N4CCC[C@H]4CO)nc4cc(N5CCN(C)CC5)ccc34)c2)cc(OC)c1OC` [Compound 375a, (S)-(1-(7-(4-methylpiperazin-1-yl)-4-((1-(3,4,5-trimethoxyphenyl)-1H-imidazol-4-yl)amino)quinazolin-2-yl)pyrrolidin-2-yl)methanol], the IC50 was under 100 nM. As to `COc1cc(-n2cnc(Nc3nc(N4CCC[C@H]4CO)nc4c3c(C)nn4C3CCCCO3)c2)cc(OC)c1OC` (stereo partly drawn) [Compound 400c, ((2S)-1-(3-methyl-1-(tetrahydro-2H-pyran-2-yl)-4-((1-(3,4,5-trimethoxyphenyl)-1H-imidazol-4-yl)amino)-1H-pyrazolo[3,4-d]pyrimidin-6-yl)pyrrolidin-2-yl)methanol], the IC50 fell in the range of 100 to 1000 nM. To `COc1cc(-n2cnc(Nc3nc(N4CCC[C@@H]4CO)nc4ccoc34)c2)cc(OC)c1OC` [Compound 294a, (R)-(1-(4-((1-(3,4,5-trimethoxyphenyl)-1H-imidazol-4-yl)amino)furo[3,2-d]pyrimidin-2-yl)pyrrolidin-2-yl)methanol] belongs under 100 nM; to `OC[C@@H]1CCCN1c1nc(Nc2cn(-c3cn(C4CC4)cn3)cn2)c2cccn2n1` [Compound 449d, (S)-(1-(4-((1′-cyclopropyl-1′H-[1,4′-biimidazol]-4-yl)amino)pyrrolo[2,1-f][1,2,4]triazin-2-yl)pyrrolidin-2-yl)methanol], under 100 nM; to `Cn1cnc(Nc2nc(N3CCN(C(=O)Cc4ccccc4)CC3)nn3cccc23)c1` [Compound 53b, 1-(4-(4-((1-methyl-1H-imidazol-4-yl)amino)pyrrolo[2,1-f][1,2,4]triazin-2-yl)piperazin-1-yl)-2-phenylethanone], 100 to 1000 nM.

Turning to `COc1cc(-n2cnc(Nc3nc(N4CCC[C@H]4CO)c4cccc(CN5CCCCC5)c4n3)c2)cc(OC)c1OC` [Compound 335d, (S)-(1-(8-(piperidin-1-ylmethyl)-2-((1-(3,4,5-trimethoxyphenyl)-1H-imidazol-4-yl)amino)quinazolin-4-yl)pyrrolidin-2-yl)methanol], the IC50 is under 100 nM. To `COc1cc(-n2cnc(Nc3nc(N4CCC[C@@H]4CO)nc4cc(Br)ccc34)c2)cc(OC)c1OC` [Compound 382a, (R)-(1-(7-bromo-4-((1-(3,4,5-trimethoxyphenyl)-1H-imidazol-4-yl)amino)quinazolin-2-yl)pyrrolidin-2-yl)methanol] belongs under 100 nM. Next, `COc1cc(-n2cnc(Nc3nc(N4CCC[C@H]4CO)c4c(C)nn(C5CCCC5)c4n3)c2)cc(OC)c1OC` [Compound 440c, (S)-(1-(1-cyclopentyl-3-methyl-6-((1-(3,4,5-trimethoxyphenyl)-1H-imidazol-4-yl)amino)-1H-pyrazolo[3,4-d]pyrimidin-4-yl)pyrrolidin-2-yl)methanol]: under 100 nM; `C[C@H](Nc1nc(Nc2cn(-c3ccccc3)cn2)c2sccc2n1)c1ccccc1` [Compound 17a, (S)—N4-(1-phenyl-1H-imidazol-4-yl)-N2-(1-phenylethyl)thieno[3,2-d]pyrimidine-2,4-diamine]: 100 to 1000 nM. To `COc1cc(-n2cnc(Nc3nc(N4CCC[C@H]4CO)c4c(cnn4C)n3)c2)cc(OC)c1OC` [Compound 328c, (S)-(1-(1-methyl-5-((1-(3,4,5-trimethoxyphenyl)-1H-imidazol-4-yl)amino)-1H-pyrazolo[4,3-d]pyrimidin-7-yl)pyrrolidin-2-yl)methanol] belongs under 100 nM.

For `COc1cc(-n2cnc(Nc3nc(N4CCC[C@H]4C(N)=O)nc4c3CCN(C(=O)OC(C)(C)C)C4)c2)cc(OC)c1OC` [Compound 185a, (S)-tert-butyl 2-(2-carbamoylpyrrolidin-1-yl)-4-((1-(3,4,5-trimethoxyphenyl)-1H-imidazol-4-yl)amino)-5,6-dihydropyrido[3,4-d]pyrimidine-7(8H)-carboxylate], the IC50 is under 100 nM. To `COc1cc(-n2cnc(Nc3nc(N4CCC[C@H]4C(N)=O)nc4sc(CN5CCCC5)cc34)c2)cc(OC)c1OC` [Compound 403h, (S)-1-(6-(pyrrolidin-1-ylmethyl)-4-((1-(3,4,5-trimethoxyphenyl)-1H-imidazol-4-yl)amino)thieno[2,3-d]pyrimidin-2-yl)pyrrolidine-2-carboxamide] belongs under 100 nM; to `COc1cc(-n2cnc(Nc3nc4c(c(N5CCC[C@H]5CO)n3)CNC4)c2)cc(OC)c1OC` [Compound 359d, (S)-(1-(2-(1-(3,4,5-trimethoxyphenyl)-1H-imidazol-4-ylamino)-6,7-dihydro-5H-pyrrolo[3,4-d]pyrimidin-4-yl)pyrrolidin-2-yl)methanol], under 100 nM. Regarding `COc1cc(-n2cnc(Nc3nc(N4CCC[C@@H]4CO)nc4c3CCCC4)c2)cc(OC)c1OC` [Compound 295b, (R)-(1-(4-((1-(3,4,5-trimethoxyphenyl)-1H-imidazol-4-yl)amino)-5,6,7,8-tetrahydroquinazolin-2-yl)pyrrolidin-2-yl)methanol], the IC50 is under 100 nM. Regarding `Cn1cnc(Nc2nc(N3CCCC3c3cccnc3)nc3ccoc23)c1` (centres unmarked) [Compound 11a, N-(1-methyl-1H-imidazol-4-yl)-2-(2-(pyridin-3-yl)pyrrolidin-1-yl)furo[3,2-d]pyrimidin-4-amine], the IC50 is under 100 nM.

Turning to `COc1cc(-n2cnc(Nc3nc(N4CCC[C@H]4CO)nc4c3CNC4)c2)cc(OC)c1OC` [Compound 365b, (S)-(1-(4-(1-(3,4,5-trimethoxyphenyl)-1H-imidazol-4-ylamino)-6,7-dihydro-5H-pyrrolo[3,4-d]pyrimidin-2-yl)pyrrolidin-2-yl)methanol], the IC50 was under 100 nM. Consider `COc1cc(-n2cnc(Nc3nc(N4CCC[C@H]4CO)c4ncccc4n3)c2)cc(OC)c1OC` [Compound 175b, (S)-(1-(2-((1-(3,4,5-trimethoxyphenyl)-1H-imidazol-4-yl)amino)pyrido[3,2-d]pyrimidin-4-yl)pyrrolidin-2-yl)methanol], for which the IC50 is under 100 nM. As to `OCc1cc2nc(N3CCC[C@H]3CO)nc(Nc3cn(-c4ccccc4)cn3)c2s1` [Compound 78f, (S)-(1-(6-(hydroxymethyl)-4-((1-phenyl-1H-imidazol-4-yl)amino)thieno[3,2-d]pyrimidin-2-yl)pyrrolidin-2-yl)methanol], the IC50 was under 100 nM. To `COc1cc(-n2cnc(Nc3nc4c(c(N5CCC[C@H]5C(N)=O)n3)CCNC4)c2)cc(OC)c1OC` [Compound 194c, (S)-1-(2-((1-(3,4,5-trimethoxyphenyl)-1H-imidazol-4-yl)amino)-5,6,7,8-tetrahydropyrido[3,4-d]pyrimidin-4-yl)pyrrolidine-2-carboxamide] belongs under 100 nM; to `COc1cc(-n2cnc(Nc3nc(N4CCC[C@H]4C(N)=O)nn4c(CN5CCCCC5)ccc34)c2)cc(OC)c1OC` [Compound 117a, (S)-1-(7-(piperidin-1-ylmethyl)-4-((1-(3,4,5-trimethoxyphenyl)-1H-imidazol-4-yl)amino)pyrrolo[2,1-f][1,2,4]triazin-2-yl)pyrrolidine-2-carboxamide], under 100 nM. As to `COc1cc(-n2cnc(Nc3nc(N4CCC[C@H]4CO)c4c(C)nn([C@H]5C[C@@H](N)C5)c4n3)c2)cc(OC)c1OC` [Compound 444c, ((S)-1-(1-((cis)-3-aminocyclobutyl)-3-methyl-6-((1-(3,4,5-trimethoxyphenyl)-1H-imidazol-4-yl)amino)-1H-pyrazolo[3,4-d]pyrimidin-4-yl)pyrrolidin-2-yl)methanol], the 50% inhibitory concentration (IC50) is under 100 nM.

For the origin of these results see US11661426B2, “Imidazole-containing inhibitors of ALK2 kinase” (BioCryst Pharmaceuticals, Inc., priority 2017, dated 2023).
